# Values quoted from earlier work in patent US9913866B2, “Selective cell targeting using adenovirus and chemical dimers” (priority 2012, dated 2018).
# Experiments:
# [1] = target: FKBP and a mutant FRB domain (mTOR mutation T2098L) (Homo sapiens, UniProt P42345+P62942, T2098L)
# FKBP and wt FRB domain = FKBP and wt FRB domain (Homo sapiens, UniProt P62942)
# FKBP and wt FRB domain, sequence (P62942 2-108 limits assumed): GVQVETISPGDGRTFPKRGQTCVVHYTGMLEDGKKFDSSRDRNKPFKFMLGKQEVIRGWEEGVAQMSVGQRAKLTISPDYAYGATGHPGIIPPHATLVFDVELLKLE
# FKBP and a mutant FRB domain (mTOR mutation T2098L), sequence (P42345 2012-2144 T2098L limits assumed): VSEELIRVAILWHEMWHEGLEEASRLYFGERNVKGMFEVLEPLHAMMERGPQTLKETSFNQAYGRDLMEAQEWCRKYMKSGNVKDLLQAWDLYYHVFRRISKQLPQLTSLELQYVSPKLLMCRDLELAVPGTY
# FKBP and a mutant FRB domain (mTOR mutation T2098L), sequence (P62942 2-108 limits assumed): as the sequence (P62942 2-108 limits assumed) above
smiles,measurement,setting,value
CO[C@H]1[C@@H](O)[C@H](C)C[C@H](C)/C=C/C=C/C=C(\C)[C@@H](c2c[nH]c3c(C)cccc23)C[C@@H]2CC[C@@H](C)[C@@](O)(O2)C(=O)C(=O)N2CCCC[C@H]2C(=O)O[C@H]([C@H](C)C[C@@H]2CC[C@@H](O)[C@H](OC)C2)C[C@H](O)[C@H](C)/C=C(\C)[C@H]1O [AP21967],heterodimer formation,[1],able to form stable heterodimers
same,heterodimer formation,FKBP and wt FRB domain,not with the wt FRB domain
